Literature values in patent publication US20090318295A1, “Solid herbicidal formulation of N-(phosphono-methyl)glycine and process for its preparation” (priority 2002, published 2009).
≈ marks a conversion by molar mass, not a printed value.

SMILES: O=C(O)CNCP(=O)(O)O [Glyphosate, N-(phosphonomethyl)glycine]
- solubility in water: 12 mg/mL (≈ 71 mM)
